The text below walks through data of patent publication US10227344B2, “CK2 inhibitors, compositions and methods thereof” (Polaris Pharmaceuticals, Inc., priority 2016, dated 2019).

Holding throughout (assay type): cell-based
One test relates to HL60. Nature of the test: Cancer cell panel, cell viability (resazurin): Leukemia, HL60. As to conditions: 72 hours, labelled drug combined with Example 3. Background: The colour change of resazurin is a common sign of viable cells or microbes.
A further test relates to Caki-2. Kind of test: Cancer cell panel, cell viability (resazurin): Renal, Caki-2. The settings on record: Caki-2 (Renal), 72 hours; labelled drug combined with Example 3.
For a further test, the system named is MOLT4. Nature of the test: Cancer cell panel, cell viability (resazurin): Leukemia, MOLT4. The settings on record: 72 hours, labelled drug combined with Example 3.
In another test the test system is MeWO. Nature of the test: Cancer cell panel, cell viability (resazurin): Melanoma, MeWO. The settings on record: 72 hours, labelled drug combined with Example 3.
A further test relates to ACHN. Kind of test: Cancer cell panel, cell viability (resazurin): Renal, ACHN. The settings on record: 72 hours, labelled drug combined with Example 3.
For a further test, the system named is U87MG. Nature of the test: Cancer cell panel, cell viability (resazurin): Glioblastoma, U87MG. The settings on record: 72 hours, labelled drug combined with Example 3.
In the next test the test system is MDA-MB-231. Kind of test: Cancer cell panel, cell viability (resazurin): Breast, MDA-MB-231. The settings on record: MDA-MB-231 (Breast), 72 hours; labelled drug combined with Example 3.
In a further test the test system is H1975. Nature of the test: Cancer cell panel, cell viability (resazurin): NSCLC, H1975. As to conditions: 72 hours, labelled drug combined with Example 3.
The test system of a further test is LoVo. Nature of the test: Cancer cell panel, cell viability (resazurin): Colon, LoVo. As to conditions: 72 hours, labelled drug combined with Example 3.
The test system of another test is K562. Nature of the test: Cancer cell panel, cell viability (resazurin): Leukemia, K562. The settings on record: 72 hours, labelled drug combined with Example 3.
The subject of the next test is A375. Nature of the test: Cancer cell panel, cell viability (resazurin): Melanoma, A375. As to conditions: 72 hours, labelled drug combined with Example 3.
A further test relates to MDA-MB-157. Nature of the test: Cancer cell panel, cell viability (resazurin): Breast, MDA-MB-157. The settings on record: MDA-MB-157 (Breast), 72 hours; labelled drug combined with Example 3.
The next test relates to H1299. Kind of test: Cancer cell panel, cell viability (resazurin): NSCLC, H1299. As to conditions: 72 hours, labelled drug combined with Example 3.
Another test deals with MDA-MB-453. Nature of the test: Cancer cell panel, cell viability (resazurin): Breast, MDA-MB-453. As to conditions: MDA-MB-453 (Breast), 72 hours; labelled drug combined with Example 3.
A further test has as its system DLD-1. Kind of test: Cancer cell panel, cell viability (resazurin): Colon, DLD-1. As to conditions: DLD-1 (Colon), 72 hours; labelled drug combined with Example 3.
A further test has as its system BT-474. Nature of the test: Cancer cell panel, cell viability (resazurin): Breast, BT-474. The settings on record: BT-474 (Breast), 72 hours; labelled drug combined with Example 3.
In the next test the test system is T47D. Kind of test: Cancer cell panel, cell viability (resazurin): Breast, T47D. The settings on record: 72 hours, labelled drug combined with Example 3.
In the next test the test system is H460. Nature of the test: Cancer cell panel, cell viability (resazurin): NSCLC, H460. As to conditions: 72 hours, labelled drug combined with Example 3.
Another test concerns Daudi. Nature of the test: Cancer cell panel, cell viability (resazurin): Burkitt's Lymphoma, Daudi. As to conditions: 72 hours, labelled drug combined with Example 3.
For another test, the system named is EOL-1. Kind of test: Cancer cell panel, cell viability (resazurin): Leukemia, EOL-1. As to conditions: EOL-1 (Leukemia), 72 hours; labelled drug combined with Example 3.
For a further test, the system named is BxPC3. Nature of the test: Cancer cell panel, cell viability (resazurin): Pancreatic, BxPC3. The settings on record: 72 hours, labelled drug combined with Example 3.
The test system of a further test is NAMALWA. Nature of the test: Cancer cell panel, cell viability (resazurin): Burkitt's Lymphoma, NAMALWA. As to conditions: 72 hours, labelled drug combined with Example 3.
The test system of the next test is SKOV-3. Nature of the test: Cancer cell panel, cell viability (resazurin): Ovarian, SKOV-3. The settings on record: SKOV-3 (Ovarian), 72 hours; labelled drug combined with Example 3.

Protocol for ACHN: (§1) Cells were plated in 96-well plates and treated for 72 hours with a serially diluted CK2 inhibitor or anti-cancer drug or their combination. The suspension cell lines were treated right after plating, while the adherent cells were allowed to attach overnight prior to the start of the treatment.
(§2) Cell viability was determined by adding resazurin to cell cultures and measuring fluorescence with a plate reader. Relative cell viability was calculated by dividing the cell viability signal from a test sample by that of a non-treated control. […] Bliss Independence and Highest Single Agent models were used to determine if there is synergy, additivity or antagonism between the CK2 inhibitor and an anti-cancer drug.
Protocol for BT-474: as §1, §2
Protocol for Caki-2: as §1, §2
Protocol for Daudi: as §1, §2
Protocol for EOL-1: as §1, §2
Protocol for H1975: as §1, §2
Protocol for HL60: as §1, §2
Protocol for MeWO: as §1, §2
Protocol for SKOV-3: as §1, §2

On to `Nc1ccn([C@@H]2O[C@H](CO)[C@@H](O)C2(F)F)c(=O)n1` [Gemcitabine, gemcitabine], for which the “synergy, additivity or antagonism of the combination of Example 3 with the anti-cancer drug” value (shortened to “synergy, additivity or antagonism”) in the test with HL60 is “+ + (Slight synergy relative to each agent alone (CI = 0.75-0.9 by Bliss Independence Model))”; in the test with Caki-2, “+ (Additive relative to each agent alone (CI = 0.9-1 by Bliss Independence Model and <0.9 by Highest Single Agent Model))”; with MOLT4 it was “+ + + (Synergy relative to each agent alone (CI = 0.4-0.74 by Bliss Independence Model))”; in the test on MeWO, “+ (Additive relative to each agent alone (CI = 0.9-1 by Bliss Independence Model and <0.9 by Highest Single Agent Model))”; in the test on ACHN it was “+ (Additive relative to each agent alone (CI = 0.9-1 by Bliss Independence Model and <0.9 by Highest Single Agent Model))”; with U87MG, “+ (Additive relative to each agent alone (CI = 0.9-1 by Bliss Independence Model and <0.9 by Highest Single Agent Model))”. In addition, the “synergy, additivity or antagonism” value in the test on MDA-MB-231 is “+ + (Slight synergy relative to each agent alone (CI = 0.75-0.9 by Bliss Independence Model))”; in the test with H1975, “+ (Additive relative to each agent alone (CI = 0.9-1 by Bliss Independence Model and <0.9 by Highest Single Agent Model))”; in the test with LoVo, “+ (Additive relative to each agent alone (CI = 0.9-1 by Bliss Independence Model and <0.9 by Highest Single Agent Model))”; with K562, “+ (Additive relative to each agent alone (CI = 0.9-1 by Bliss Independence Model and <0.9 by Highest Single Agent Model))”; in the test with A375 it was “+ (Additive relative to each agent alone (CI = 0.9-1 by Bliss Independence Model and <0.9 by Highest Single Agent Model))”; in the test with MDA-MB-157 it was “+ + (Slight synergy relative to each agent alone (CI = 0.75-0.9 by Bliss Independence Model))”. Besides, the “synergy, additivity or antagonism” value was “+ (Additive relative to each agent alone (CI = 0.9-1 by Bliss Independence Model and <0.9 by Highest Single Agent Model))” in the test on H1299; “+ + (Slight synergy relative to each agent alone (CI = 0.75-0.9 by Bliss Independence Model))” in the test on MDA-MB-453; “+ (Additive relative to each agent alone (CI = 0.9-1 by Bliss Independence Model and <0.9 by Highest Single Agent Model))” in the test with DLD-1; “+ (Additive relative to each agent alone (CI = 0.9-1 by Bliss Independence Model and <0.9 by Highest Single Agent Model))” in the test with BT-474; “+ (Additive relative to each agent alone (CI = 0.9-1 by Bliss Independence Model and <0.9 by Highest Single Agent Model))” in the test with T47D; “+ + (Slight synergy relative to each agent alone (CI = 0.75-0.9 by Bliss Independence Model))” in the test with H460. Besides, the “synergy, additivity or antagonism” value with Daudi is given as “+ + (Slight synergy relative to each agent alone (CI = 0.75-0.9 by Bliss Independence Model))”; in the test with EOL-1 it was “+ + + + (Strong synergy relative to each agent alone (CI < 0.4 by Bliss Independence Model))”; in the test on BxPC3, “+ + + (Synergy relative to each agent alone (CI = 0.4-0.74 by Bliss Independence Model))”; in the test with NAMALWA it was “+ + (Slight synergy relative to each agent alone (CI = 0.75-0.9 by Bliss Independence Model))”; in the test with SKOV-3, “+ + (Slight synergy relative to each agent alone (CI = 0.75-0.9 by Bliss Independence Model))”.
